Measured values as given in PMC11521937, “Expression and characterization of pantothenate energy‐coupling factor transporters as an anti‐infective drug target” (Protein Science : A Publication of the Protein Society, 2024).
Values after ≈ are worked out from the molar mass of the structure shown.

Columns and labels:
ECF‐module (EcfTAA′) = ECF‐module (EcfTAA′) (Streptococcus pneumoniae, UniProt A0A0H2ZPG6+Q04HV7+Q97N51); test: SPR binding to immobilized ECF‐module
Text: After identifying the optimal buffer and assessing the stability of the ECF transporter proteins, we proceeded to determine the binding affinity (K d) of small‐molecule inhibitors using SPR. This label‐free technique allows for the investigation of protein–ligand interactions in real time and requires protein immobilization (GE Healthcare Life Science, [2012]). […] The ECF‐PanT, ECF‐module, and ECF‐FolT2, each bearing a histidine tag, were immobilized on a high‐affinity poly‐nitrilotriacetic acid (poly‐NTA) sensor chip, which was initially activated using NiCl2. The His‐tagged proteins were then injected over the Ni^2+‐activated surface to strongly bind to the metal (Knecht et al., [2009]). The immobilization resonance unit (RU) levels were 12,000–15,000 for ECF‐PanT, 9000–12,000 for the ECF‐module, and 6000–9000 for ECF‐FolT2.
In this assay, we used HEPES buffer (10 mM HEPES, 50 mM NaCl, 50 μM EDTA, 0.05% (v/v) DDM, and a pH value of 7.5) as recommended by Xantec Bioanalytics, with a slight modification made to create a more favorable environment for the ECF proteins, enabling their stability to be maintained throughout the assay. Additionally, the protein was maintained in the buffer containing 5% (v/v) DMSO. For a more in‐depth description of the procedures, please refer to Appendix S1.
Surface plasmon resonance (SPR)
The SPR binding studies were performed using a Reichert 4SPR surface plasmon resonance spectrometer (Reichert Technologies, Buffalo, NY, USA), and medium–density NTA derivatized polycarboxylate hydrogel NiHC200M sensor chips (XanTec Bioanalytics, Düsseldorf, Germany). The experimental procedure involved two rounds of nickel activation and one immobilization step at a concentration of 200 nM. The proteins ECF-module (92,56146 kDa), ECF-PanT (113,8745 kDa), and ECF-FolT2 (112,16316 kDa) were immobilized in flow cells 1, 2, and 3, respectively according to the standard protocol as provided by Xantec bioanalytics with a slight modification based on the recombinant proteins. The flow-cell 4 was left blank to serve as a reference.
The immobilization buffer employed for the immobilization process consisted of 10 mM HEPES with a pH of 7.5, 50 mM NaCl, 50 µM EDTA, and 0.05% DDM without DMSO. Following the immobilization step, for the binding study of the compounds, the running buffer was exchanged for the mentioned buffer with 5% v/v DMSO. This was done to ensure consistency in the percentage of DMSO present in the solutions containing the respective testing inhibitors, as these inhibitors were soluble in the DMSO solvent. By maintaining the same DMSO concentration, we aimed to minimize any potential solvent-related effects on the assay results. All running buffers were filtered and degassed before use.
The system was initially primed with 5 mM NiCl2 with an association and dissociation time of 2 min for each to activate the NTA sensor chip. Then, the recombinant proteins with a concentration of 200 nM were injected at a flow rate of 10 µL/min for 8 min. Finally, the baseline check with the running […]
the ECF-module, ECF-PanT, and ECF-FolT2, respectively.
First, the calibration curve for correction of the DMSO effect was prepared; the concentrations were 3%, 3.5% 4%, 4.5%, 5%, 5.5%, 6%, 6.5%, and 7% v/v and were diluted with SPR buffer. Then, the […]
concentration of DMSO in all the samples was set to 5% v/v DMSO. The samples (200 µL) were loaded on a 96-well plate and were injected at a flow rate of 50 μL/min. Single-cycle kinetics were applied for KD determination. The association time was set to 60 s, and the dissociation phase was recorded for 120 s. For surface regeneration, 0.35 M EDTA (pH 8.5) and 0.1 M NaOH were used. Data processing and analysis were performed by Scrubber software (Version 2.0c, 2008, BioLogic Software). Sensorgrams were calculated by sequential subtractions of the corresponding curves obtained from the reference flow cell and the running buffer (blank). SPR responses were expressed in the resonance unit (RU). The KD […]

[1] = system: Streptococcus pneumoniae DSM‐20566; test: bacterial growth assay (MIC), S. pneumoniae DSM‐20566; assay type: cell-based
S. pneumoniae DSM‐20566 = test: Galleria mellonella infection model with S. pneumoniae; assay type: in vivo; conditions: S. pneumoniae OD600 1.5, after 3 days
Procedure: Next, we examined the antibacterial effect of the ECF inhibitors under in vivo conditions by using G. mellonella larvae. This model was adopted based on the work of Alhayek et al. ([2022]) and serves to assess the efficacy of ECF inhibitors against S. pneumoniae induced infection. Larvae were injected with the overnight culture of S. pneumoniae DSM‐20566, incubated for 3 days at 37°C and 5% CO2 without shaking, and survival rates were monitored daily for 3 days (Figure 4).
G. mellonella larvae were used as an in vivo infection model to test selected ECF inhibitors, following the methodology established by Alhayek et al. ([2022]). S. pneumoniae DSM‐20566 was cultured in Todd–Hewitt medium with 0.1% choline at 37°C with 5% CO2 until an OD600 of 1.5 or higher was reached. Larvae were infected by injecting 10 μL of the culture into the left proleg and incubated at 37°C, 5% CO2 for 72–96 h. Survival was monitored daily. Control groups received either PBS or no injection. […]. The larvae used in this study were purchased from VALOMOLIA Company (Strasbourg, France).

Chain of ECF‐module (EcfTAA′) (Q04HV7 whole entry): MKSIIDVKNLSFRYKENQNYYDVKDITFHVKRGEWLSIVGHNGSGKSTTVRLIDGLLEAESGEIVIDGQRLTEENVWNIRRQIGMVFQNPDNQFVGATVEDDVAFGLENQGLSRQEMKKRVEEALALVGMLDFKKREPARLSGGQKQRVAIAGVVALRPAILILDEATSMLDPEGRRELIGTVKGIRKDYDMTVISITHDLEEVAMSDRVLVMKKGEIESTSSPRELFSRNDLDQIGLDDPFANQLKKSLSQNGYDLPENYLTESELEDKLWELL
Chain of ECF‐module (EcfTAA′) (Q97N51 whole entry): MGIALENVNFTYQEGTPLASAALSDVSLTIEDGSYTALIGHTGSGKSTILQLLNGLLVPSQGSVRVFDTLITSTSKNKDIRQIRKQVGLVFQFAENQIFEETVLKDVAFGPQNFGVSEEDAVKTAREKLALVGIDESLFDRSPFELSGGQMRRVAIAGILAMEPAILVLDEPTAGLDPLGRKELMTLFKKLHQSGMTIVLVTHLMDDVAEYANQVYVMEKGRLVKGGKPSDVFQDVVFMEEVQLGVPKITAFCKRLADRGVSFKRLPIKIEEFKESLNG
Chain of ECF‐module (EcfTAA′) (A0A0H2ZPG6 entry or part of it): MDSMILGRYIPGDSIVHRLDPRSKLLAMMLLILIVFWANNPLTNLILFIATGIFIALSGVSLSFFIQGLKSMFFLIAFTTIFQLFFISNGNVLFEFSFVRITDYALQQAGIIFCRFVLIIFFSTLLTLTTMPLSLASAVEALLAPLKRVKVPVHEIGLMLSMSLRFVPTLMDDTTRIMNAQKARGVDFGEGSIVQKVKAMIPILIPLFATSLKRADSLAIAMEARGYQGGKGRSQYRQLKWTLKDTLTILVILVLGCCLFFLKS

SMILES | Kd (ECF‐module (EcfTAA′)) [µM] | MIC [1] [µM] | larval survival (S. pneumoniae DSM‐20566; compound at 10 μM) | larval survival (S. pneumoniae DSM‐20566; compound at 50 μM)
O=C(O)c1cccc(NCc2ccc(-c3cccc(Cl)c3)o2)c1 [Compound 5] | > 200 | 128 (≈ 42 µg/mL) | – | –
CC(C)(C)OC(=O)Nc1ccc(OCc2cccc3ccccc23)cc1C(=O)O [Compound 3] | > 200 | 16 (≈ 6.3 µg/mL) | 60% | 50%
O=C(O)c1cccc(NCc2ccc(-c3ccccc3Cl)o2)c1 [Compound 6] | > 200 | 128 (≈ 42 µg/mL) | – | –
O=C(O)c1cc(OCc2ccc(Br)c3ccccc23)ccc1O [Compound 2] | > 200 | 8 (≈ 2.99 µg/mL) | up to 70% | up to 70%
O=C(O)c1cc(OCc2cccc3ccccc23)ccc1O [Compound 1] | > 200 | 128 (≈ 37.7 µg/mL) | – | –
O=C(O)c1cccc(NCc2ccc(-c3ccc(Cl)cc3)o2)c1 [Compound 4] | > 200 | 64 (≈ 21 µg/mL) | 40% | 60%
